Laboratory results published in PMC9828418 (Angewandte Chemie (International Ed. in English), 2022).
Like-named read-outs stand apart in the source and are kept apart here.

Tests used:
[1] = Protonation constants of Bi^III complexes by pH-potentiometry; assay type: physicochemical; conditions: 0.15 M NaClO4, 25 °C
[2] = assay type: physicochemical; conditions: 0.15 M NaClO4, 25 °C
[3] = 0.6 M NaClO4, 25 °C; cited from earlier work

Row | logK Bi(HL) (protonation constant of complex) [1] | logK BiL (stability constant) [2] | logK BiL (stability constant) ([2]; listed as A) | logK BiL (stability constant) ([2]; listed as B) | Compound | logK BiL (stability constant) [3]
1 | 1.63(3) | 26.45 | 26.45(6) |  | CC1(N(CC(=O)[O-])CC(=O)[O-])CN(CC(=O)[O-])CCN(CC(=O)[O-])C1.[Bi+3] [[Bi(AAZTA)]^−] | 
2 | 4.74(4) | 28.75 |  | 28.75(8) | O=C([O-])CCCCC1(N(CC(=O)[O-])CC(=O)[O-])CN(CC(=O)[O-])CCN(CC(=O)[O-])C1.[Bi+3] [[Bi(AAZTA‐C4‐COO^−)]^2−] | 
3 |  |  |  |  | O=C([O-])CN(CCN(CC(=O)[O-])CC(=O)[O-])CCN(CC(=O)[O-])CC(=O)[O-].[Bi+3] [[Bi(DTPA)]^2−] | 29.29
